This test relates to tomato late blight. The format is in vivo, Phytophthora infestans.

Where two headings read alike, the source gives them in different places.

Consider `CC1COC(Cn2cncn2)(c2ccc(Oc3ccc(Cl)cc3)cc2Cl)O1` (stereo not drawn) [Difenoconazole, difenoconazole], for which the Control value reads like this: (difenoconazole 12.5 ppm alone (valifenalate 0 ppm)) 13; (difenoconazole 25 ppm alone (valifenalate 0 ppm)) 13; (difenoconazole 50 ppm alone (valifenalate 0 ppm)) 21; (difenoconazole 100 ppm alone (valifenalate 0 ppm)) 25.

For the molecule `Cc1cc(OC(C)C)ccc1C(=O)C(C)(C)NC(=O)c1sccc1C` [Isofetamid, isofetamid], the Control value reads like this: (isofetamid 18.8 ppm alone (valifenalate 0 ppm)) 0; (isofetamid 37.5 ppm alone (valifenalate 0 ppm)) 0; (isofetamid 75 ppm alone (valifenalate 0 ppm)) 0; (isofetamid 150 ppm alone (valifenalate 0 ppm)) 4; (isofetamid 300 ppm alone (valifenalate 0 ppm)) 8.

For the molecule `COc1cc(C)c(C(=O)c2c(OC)ncc(Cl)c2C)c(OC)c1OC` [Pyriofenone, pyriofenone], the Control value is, setting by setting: (pyriofenone 12.5 ppm alone (valifenalate 0 ppm)) 0; (pyriofenone 25 ppm alone (valifenalate 0 ppm)) 0; (pyriofenone 50 ppm alone (valifenalate 0 ppm)) 0; (pyriofenone 100 ppm alone (valifenalate 0 ppm)) 0.

On to `CC(C)(C)C(O)(CCc1ccc(Cl)cc1)Cn1cncn1` (stereo not drawn) [Tebuconazole, tebuconazole], for which the Control value reads like this: (tebuconazole 12.5 ppm alone (valifenalate 0 ppm)) 4; (tebuconazole 25 ppm alone (valifenalate 0 ppm)) 4; (tebuconazole 50 ppm alone (valifenalate 0 ppm)) 4; (tebuconazole 100 ppm alone (valifenalate 0 ppm)) 8.

As to `COC(=O)CC(NC(=O)[C@@H](NC(=O)OC(C)C)C(C)C)c1ccc(Cl)cc1` (stereo partly drawn) [Valifenalate, valifenalate], the Control value by setting is: (valifenalate 1.2 ppm alone (difenoconazole 0 ppm), Table 4) 46; (valifenalate 1.2 ppm alone (isofetamid 0 ppm), Table 1) 29; (valifenalate 1.2 ppm alone (pyriofenone 0 ppm), Table 2) 13; (valifenalate 2.3 ppm alone (difenoconazole 0 ppm), Table 4) 54; (valifenalate 2.3 ppm alone (isofetamid 0 ppm), Table 1) 42; (valifenalate 2.3 ppm alone (pyriofenone 0 ppm), Table 2) 25. The Control value stood at 33 (valifenalate 2.3 ppm alone (tebuconazole 0 ppm), Table 3); 58 (valifenalate 4.7 ppm alone (difenoconazole 0 ppm), Table 4); 54 (valifenalate 4.7 ppm alone (isofetamid 0 ppm), Table 1); 50 (valifenalate 4.7 ppm alone (pyriofenone 0 ppm), Table 2); 46 (valifenalate 4.7 ppm alone (tebuconazole 0 ppm), Table 3); 75 (valifenalate 9.4 ppm alone (difenoconazole 0 ppm), Table 4). For the same molecule, the Control value is on record as 71 (valifenalate 9.4 ppm alone (isofetamid 0 ppm), Table 1); 63 (valifenalate 9.4 ppm alone (pyriofenone 0 ppm), Table 2); 63 (valifenalate 9.4 ppm alone (tebuconazole 0 ppm), Table 3); 75 (valifenalate 18.8 ppm alone (isofetamid 0 ppm), Table 1); 79 (valifenalate 18.8 ppm alone (pyriofenone 0 ppm), Table 2); 67 (valifenalate 18.8 ppm alone (tebuconazole 0 ppm), Table 3). Besides, the Control value (valifenalate 37.5 ppm alone (tebuconazole 0 ppm), Table 3) is 72.

The record behind these values is patent US20180160684A1 (priority 2015, published 2018).
